Reference: US20260223838A1, “ANTIMICROBIAL MASTERBATCHES AND POWDERS COMPRISING A SYNERGISTIC BLEND OF COMPONENTS” (priority 2023, published 2026)

Test system: E. coli (ATCC 8739)
Assay: Zone of Inhibition (ZOI) of pressed powder pellets
Conditions: against E. coli after 24 h incubation at 37° C.
Description: Zone of Inhibition (ZOI). […] The cultures were streaked on Luria Agar (LB) plates and incubated overnight at 37° C. […] 50 μL of this stock suspension was spread homogeneously on a trypticase soy agar (TSA) plate (diameter 10 cm).

Compound	diameter of the ZOI
Zinc borate	No ZOI
[O]=[Mo](=[O])=[O] [molybdenum oxide, molybdenum (VI) oxide]	19 mm
basic copper (II) carbonate [BCC]	12 mm
